Legend:
H1299-7 cells [1] = assay: Cell growth assay over 14 days, LuTate alone or with DNA-PK inhibitor; format: cell-based, human; details: parental H1299-7 cells, 20 MBq/mL LuTate
Source text: Total Cells = Cell Number counted (1 well) × Number of Wells required
Number of Wells required going forward = Total Cells/0.2 × 10^6
Cell growth was normalised to the appropriate control for each experiment. […] All assays were repeated as at least biological triplicates.

H1299-7 Artemis KO cells = assay: Cell growth assay over 14 days; format: cell-based, human
Protocol: (§1) Two gRNA (from the Brunello library, as determined in the MaGeCK count files) with the most significant enrichment or depletion for the genes to be validated, were pooled and nucleofected into H1299-7 Cas9 cells, using the Amaxa 4D nucleofector (Lonza), solution SF and program EW-127 (Lonza, optimised protocol for H1299 cells). Cells were nucleofected with 75 pmol of each gRNA in 20 μl (gRNA from Integrated DNA Technologies, sequences in supplementary Table 2). Efficiency of gene knockout was determined at 72 h post nucleofection through western blot or DNA sequencing. The resulting cell lines were H1299-7 Beta-Arrestin 2 knockout (KO), MVP KO, Artemis KO, and DNA-PK KO.
(§2) For LuTate treatment, aliquots of 4 × 10^6 cells were collected and resuspended in 500 μl DMEM + 1% FCS, and treated with either 0, 5, 10 or 20 MBq/mL LuTate for 4 h in suspension at 37°C and 5% CO2 with mixing every hour. Cells were resuspended in 4 mL full media and plated in 6 well plates at a concentration of 0.5 × 10^6 cells per well. For drug combination experiments, 24 h post LuTate treatment, cells were treated with either 0.5 μM or 1 μM of either AZD-7648 or nedisertib.
(§3) Cell growth was tracked over a 14-day period. Cells were counted and replated at 0.2 × 10^6 cells per well on Days 2, 6 and 9, with a final count on Day 14. Because of the exponential growth or significant lethality of the various cultures, not all cells were necessarily re-seeded at each subculture interval. However, the cell growth assay data is corrected for the fraction of cells re-plated so the data is expressed for all conditions as though all cells were re-plated at each interval (illustrated in Supplementary Figure S1). The total number of cells is thus the theoretical total number of cells over time if all cells at each subculture interval were re-seeded at identical density, calculated by: […]
(§4) Cell growth was normalised to the appropriate control for each experiment. For growth curves showing validation of the CRISPR result, results were graphed showing the alteration in cell population, as compared to control, over time (out to Day 14). For all other assays (combination experiments, and experiments using AR42J or SKNBE-2 cells), results are shown comparing cell population at the Day 14 timepoint. All assays were repeated as at least biological triplicates.

[2] = test system: H1299-7 Beta-Arrestin 2 KO cells; assay: Cell growth assay over 14 days; format: cell-based, human
Protocol: as §1, §2, §3, §4

H1299-7 DNA-PK KO cells = assay: Cell growth assay over 14 days; format: cell-based, human
Protocol: as §1, §2, §3, §4

H1299-7 MVP KO cells [3] = assay: Cell growth assay over 14 days; format: cell-based, human; details: 5 MBq/mL LuTate
Protocol: as §1, §2, §3, §4

SKNBE-2 cells = assay: Cell growth assay, Day 14; format: cell-based, human
Protocol: as §2, §3
Cell growth was normalised to the appropriate control for each experiment. […]

[4] = test system: H1299-7 Beta-Arrestin 2 KO cells; assay: LuTate retention assay; format: cell-based, human; details: 4 h treatment with 5 MBq/mL LuTate then 24 h in fresh medium, gamma counter, biological triplicates, p-value 0.01 vs control
Protocol: (§5) H1299-7, H1299-7 Cas9, MVP KO and Beta-Arrestin 2 KO cells were treated with either 0 or 5 MBq/mL LuTate using the same suspension protocol as for the growth experiments. After 4 h of treatment, cells were washed and triplicate aliquots collected for the 4 h timepoint, and the remaining cells plated in triplicate in 6 well plates for 24 h. For collection of samples, cells were spun down, washed twice, and resuspended in 500 μl PBS. All experiments were repeated as biological triplicates. Samples were stored at RT for 2-3 half-lives of LuTate (2-3 weeks), before being counted on the Captus 4000e gamma counter (Capintec). Percent LuTate retained by the cells was calculated as a percent of total activity added and averaged across the triplicate experiments.

H1299-7 MVP KO cells [5] = assay: LuTate retention assay; format: cell-based, human; details: 5 MBq/mL LuTate for 4 h
Protocol: as §5

H1299-7 cells [6] = assay: LuTate retention assay; format: cell-based, human; details: H1299-7 control cells, 4 h treatment with 5 MBq/mL LuTate then 24 h in fresh medium, gamma counter, biological triplicates
Protocol: as §5

H1299-7 xenografts = assay: H1299-7 xenograft in BALB/c nude mice; format: in vivo; details: single agent: 6 MBq LuTate single iv dose, or nedisertib 150 mg/kg oral for 6 days
Protocol: (§6) All animal experiments were performed with approval from the Peter MacCallum Cancer Centre Animal Experimentation Ethics Committee, and in accordance with the Australian code for the care and use of animals for scientific purposes (8th Edition, 2013). Four- to seven-week-old female BALB/c nude mice were sourced from Animal Resources Centre (Canning Vale, Western Australia). 3 × 10^6 AR42J or 5 × 10^6 H1299-7 cells were subcutaneously implanted onto the right flank of the mice in a 50% Matrigel (Corning):PBS mixture. Mice were weighed, and tumours measured twice weekly using electronic calipers. Tumour volume (mm^3) was calculated as length × width × height × π/6. Once tumours reached a volume of 50-300 mm^3, the animals were randomised into groups of 9-10 mice and injected intravenously with a single dose (5-10 MBq in 100-200 μL) LuTate or vehicle (saline). At 24 h post LuTate injection mice began once-daily oral dosing of DNA-PK inhibitor nedisertib (150 mg/kg) or vehicle (10% DMSO, 40% PEG300, 5% Tween-80, 45% saline) in a volume of 10 ml/kg for 6 consecutive days. Mice were monitored 2-3 times weekly for overall weight as an indicator of murine health and tumour volume measured. Mice were euthanised once the tumour volume exceeded 1200 mm^3.

AR42J tumours = assay: AR42J xenograft in BALB/c nude mice; format: in vivo, mouse
Protocol: as §6

unselected tumours = details: phase I clinical trial, cited from earlier work
Source text: To this end, several clinical trials are evaluating the tolerability and efficacy of nedisertib in humans. […] Current clinical trials are focusing on the combination of nedisertib and radiotherapy in the setting of pancreatic cancers (NCT04172532) and glioblastoma and gliosarcoma (NCT04555577), as well as others. Additionally, there are two studies investigating the combination ...

| SMILES | survival (expansion of parental cells) (H1299-7 cells [1]) [%] | times more sensitive to LuTate than control cells (H1299-7 Artemis KO cells; 5 MBq/mL LuTate, Day 14, p value 0.0021) [times] | cell population by Day 14 (H1299-7 Artemis KO cells; 10 MBq/mL LuTate) | relative growth (% of control) at Day 14 (H1299-7 Artemis KO cells; 10 MBq/mL LuTate for 4 h in suspension) [%] | relative growth (% of control) at Day 14 (H1299-7 Artemis KO cells; 20 MBq/mL LuTate for 4 h) [%] | increase in relative growth versus parental H1299-7 cells ([2]; 5 MBq/mL LuTate) | increase in survival versus parental H1299-7 cells ([2]; 10 MBq/mL LuTate, p-value 0.015) | times more sensitive to LuTate than control cells (H1299-7 DNA-PK KO cells; 5 MBq/mL LuTate, Day 14, p value 0.0017) [times] | cell population by Day 14 (H1299-7 DNA-PK KO cells; 10 MBq/mL LuTate) | increase in relative growth versus parental H1299-7 cells (H1299-7 MVP KO cells [3]) | reduction of survival (SKNBE-2 cells; 20 MBq/mL LuTate alone, Day 14) [%] | effect on cell survival (SKNBE-2 cells; LuTate doses of less than 10 MBq/mL) | LuTate retained (percent of total activity added) [4] [%] | amount of LuTate retained versus control cells (H1299-7 MVP KO cells [5]) | LuTate retained (percent of total activity added) (H1299-7 cells [6]) [%] | impact on tumour growth or survival compared to untreated controls (H1299-7 xenografts) | tumour control post the end of treatment (AR42J tumours; AR42J tumours, 9 MBq LuTate single dose with or without 6 days nedisertib 150 mg/kg, 9-10 mice per group) [days] | median survival (AR42J tumours; AR42J xenograft mice, 9 MBq LuTate with or without nedisertib 150 mg/kg for 6 days, vehicle control 10 days, p-value 0.0001) [days] | efficacy in humans (unselected tumours; unselected tumours) | tolerability in humans (unselected tumours) |
| --- | --- | --- | --- | --- | --- | --- | --- | --- | --- | --- | --- | --- | --- | --- | --- | --- | --- | --- | --- | --- |
| C[C@@H](O)[C@H](NC(=O)[C@@H]1CSSC[C@H](NC(=O)[C@@H](Cc2ccccc2)NC(=O)CN2CCN(CC(=O)[O-])CCN(CC(=O)[O-])CCN(CC(=O)[O-])CC2)C(=O)N[C@@H](Cc2ccc(O)cc2)C(=O)N[C@H](Cc2c[nH]c3ccccc23)C(=O)N[C@@H](CCCCN)C(=O)N[C@@H]([C@@H](C)O)C(=O)N1)C(=O)O.[177Lu+3] [LuTate, ^177Lutetium-DOTA-octreotate] | < 0.1 | 20 | almost completely eradicated | 0.0038 | 0.000296 | two-fold | four-fold | 10 | almost completely eradicated | two-fold | 50 | little effect | 14.5 | no alteration | 32 | no impact | 10 | 28 | – | – |
| COc1ccc([C@@H](O)c2cc(-c3ncnc4cc(N5CCOCC5)ccc34)c(F)cc2Cl)nn1 [nedisertib] | – | – | – | – | – | – | – | – | – | – | – | – | – | – | – | no impact | – | – | modest efficacy | well tolerated |
